Results as given in patent publication US20110034487A1, “CXCR3 ANTAGONISTS” (AMGEN INC., priority 2009, published 2011).

How the values were obtained:
CYP3A4 = CYP3A4 (Homo sapiens, UniProt P08684); details: human hepatocytes and microsomes
[1] = tested on: cellular migration into the lung; test: Cellular migration into the lung following bleomycin challenge; type: in vivo; details: following bleomycin challenge (FIG. 1)
[2] = tested on: lymphocyte migration toward I-TAC; test: Lymphocyte migration toward I-TAC; type: cell-based; details: 100% human plasma, read-out: Migration to ITAC IC50 (nM) 100% Plasma
CXCR3 [3] = biological target: T1, CXCR3 (Homo sapiens, UniProt P49682); test: 125I-I-TAC binding assay (CXCR3 binding); details: 50% human plasma; primary, activated human lymphocytes
T1 construct: endogenous in cells
T1 sequence (P49682 1-368): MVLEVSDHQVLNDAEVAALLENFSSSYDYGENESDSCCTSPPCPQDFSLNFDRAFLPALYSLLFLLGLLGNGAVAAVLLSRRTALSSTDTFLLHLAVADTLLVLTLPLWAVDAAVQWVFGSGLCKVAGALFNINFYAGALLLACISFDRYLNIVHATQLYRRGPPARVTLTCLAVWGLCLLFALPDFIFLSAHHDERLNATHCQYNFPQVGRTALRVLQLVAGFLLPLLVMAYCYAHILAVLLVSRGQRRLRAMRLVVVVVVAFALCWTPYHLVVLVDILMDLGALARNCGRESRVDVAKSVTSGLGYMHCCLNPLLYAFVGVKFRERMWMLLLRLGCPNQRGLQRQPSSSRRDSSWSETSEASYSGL
Protocol: (§1) Unless otherwise noted, all reagents used are available from commercial sources (e.g., Sigma). Test compounds are diluted in DMSO to a concentration that is 40-times the intended final assay concentration; 5 μL are transferred to each well of a 96-well flat-bottomed polypropylene plate (e.g., from Greiner, Inc.). The cells were resuspended in assay buffer (25 mM Hepes, 80 mM NaCl, 1 mM CaCl2, 5 mM MgCl2, 0.2% bovine serum albumin, pH 7.1, stored at 4° C.) at 5 million cells per mL; 100 μL of this cell suspension is then transferred to each well of a 96-well plate containing the diluted test compounds. ^125I-labelled chemokine (purchased from commercial sources, e.g., Amersham, PE Life Sciences) is diluted in assay buffer to a concentration of approximately 60 pM; 100 μL of this chemokine solution is transferred to each well of a 96-well plate containing compounds and cell suspension. The plates are sealed with commercially available foil plate seals (e.g., from E&K Scientific), and stored at 4° C. for 2 to 4 h, shaking gently. […] The plates are counted on a scintillation counter, such as a Packard TopCount. […] Data were analyzed using commercially available software (e.g., Excel from Microsoft, Prism from GraphPad Software Inc.).

CXCR3 [4] = biological target: T1, CXCR3; test: HWB receptor occupancy (500 ng/ml ITAC); type: cell-based
CXCR3 [5] = biological target: T1, CXCR3; test: [125I]-IP-10 binding assay (CXCR3 binding)
Protocol: as §1

[6] = Multiple dosing of AMG 487 in humans; type: in vivo, human
Description: Thus, there remains a need to identify a suitable clinical candidate devoid of the unpredicted accumulation seen with AMG 487. Such compounds are provided herein.

CYP3A4, sequence (P08684 whole entry): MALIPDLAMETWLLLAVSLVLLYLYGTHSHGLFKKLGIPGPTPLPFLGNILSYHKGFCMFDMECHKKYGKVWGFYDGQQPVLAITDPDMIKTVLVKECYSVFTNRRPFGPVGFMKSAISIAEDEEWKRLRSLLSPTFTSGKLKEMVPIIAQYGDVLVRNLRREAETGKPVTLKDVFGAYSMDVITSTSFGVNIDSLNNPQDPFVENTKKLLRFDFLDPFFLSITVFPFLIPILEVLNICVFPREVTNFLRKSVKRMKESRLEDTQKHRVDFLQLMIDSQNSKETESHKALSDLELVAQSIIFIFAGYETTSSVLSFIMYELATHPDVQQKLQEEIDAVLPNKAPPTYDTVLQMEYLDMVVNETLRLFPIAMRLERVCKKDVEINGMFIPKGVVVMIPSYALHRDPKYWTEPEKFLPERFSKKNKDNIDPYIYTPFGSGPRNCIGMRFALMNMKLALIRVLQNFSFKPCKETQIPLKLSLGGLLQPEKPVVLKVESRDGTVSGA

| IC50 [2] [nM] | IC50 (CXCR3 [3]) [nM] | IC50 (CXCR3 [4]) [nM] | IC50 (CXCR3 [5]; [125I]-IP-10 Binding IC50 (nM) 50% Plasma, 50% human plasma, primary, activated human lymphocytes) [nM] | IC50 (CXCR3 [5]; buffer, read-out: [125I]-IP-10 Binding IC50 (nM) Buffer) [nM] | Accumulation of the compound upon multiple dosing [6] | Structure (SMILES) | CYP3A4 inhibition (CYP3A4) | Cellular migration into the lung [1] |
| --- | --- | --- | --- | --- | --- | --- | --- | --- |
|  |  |  |  |  |  | CC(c1nc2ncccc2c(=O)n1-c1ccc(O)cc1)N(Cc1cccnc1)C(=O)Cc1ccc(OC(F)(F)F)cc1 (stereo not drawn) [Compound M2] | time-dependent inhibitor of CYP3A4 |  |
| 65 ± 14 | 51 ± 20 | 9.8 ± 4.4 | 12 ± 5 | 7 ± 2 |  | C[C@H](c1nc2ncccc2c(=O)n1-c1ccc(Cl)cc1)N(CC1CCS(=O)(=O)CC1)C(=O)Cc1ccc(C(F)(F)F)c(F)c1 [Compound 1] |  | inhibits cellular migration into the lung |
| 346 ± 123 |  |  |  |  | dose-dependent accumulation | CCOc1ccc(-n2c([C@@H](C)N(Cc3cccnc3)C(=O)Cc3ccc(OC(F)(F)F)cc3)nc3ncccc3c2=O)cc1 [AMG 487, reference compound] |  |  |
